Where a chain is given by its changes, count along the chain named. Like-named read-outs stand apart in the source and are kept apart here.
Experiments:
[1] = test system: THP1 cells; test: Combination drug screening, Cell Titer Glo, 10 × 10 matrix, THP1 cells; type: cell-based
[2] = test system: MOLM14(D835Y) cells; type: cell-based
[3] = biological target: T1, FLT3 D835Y (Homo sapiens, UniProt P36888, D835Y); test: DiscoverX KINOMEscan competition binding, FLT3 D835Y
T1 construct: purchased DiscoverX (KINOMEscan)
T1 sequence (P36888 27-993 D835Y): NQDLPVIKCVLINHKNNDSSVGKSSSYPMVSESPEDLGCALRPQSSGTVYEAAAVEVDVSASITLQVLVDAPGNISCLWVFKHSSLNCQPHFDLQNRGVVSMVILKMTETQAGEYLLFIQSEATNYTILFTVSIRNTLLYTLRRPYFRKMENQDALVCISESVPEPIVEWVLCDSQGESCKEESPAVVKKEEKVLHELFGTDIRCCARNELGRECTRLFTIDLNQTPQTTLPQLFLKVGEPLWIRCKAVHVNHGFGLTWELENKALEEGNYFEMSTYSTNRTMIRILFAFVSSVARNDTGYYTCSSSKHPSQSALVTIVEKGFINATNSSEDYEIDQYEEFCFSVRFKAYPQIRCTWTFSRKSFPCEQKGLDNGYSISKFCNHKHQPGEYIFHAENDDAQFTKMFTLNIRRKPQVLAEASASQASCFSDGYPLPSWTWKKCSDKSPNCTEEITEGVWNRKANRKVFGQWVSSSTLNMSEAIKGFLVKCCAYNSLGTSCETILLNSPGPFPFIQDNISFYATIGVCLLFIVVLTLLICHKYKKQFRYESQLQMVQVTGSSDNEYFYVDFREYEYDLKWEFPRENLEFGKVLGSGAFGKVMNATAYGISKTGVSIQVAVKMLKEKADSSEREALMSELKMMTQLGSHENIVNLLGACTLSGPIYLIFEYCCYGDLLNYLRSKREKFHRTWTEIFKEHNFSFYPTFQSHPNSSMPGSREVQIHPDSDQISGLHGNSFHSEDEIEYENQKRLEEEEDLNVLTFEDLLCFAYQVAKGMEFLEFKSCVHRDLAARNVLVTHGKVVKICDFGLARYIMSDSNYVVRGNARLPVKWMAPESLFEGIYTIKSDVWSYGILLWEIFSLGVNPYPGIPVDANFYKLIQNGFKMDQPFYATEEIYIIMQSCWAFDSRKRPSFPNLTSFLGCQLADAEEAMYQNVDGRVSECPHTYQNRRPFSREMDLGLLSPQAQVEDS

[4] = biological target: T2, FLT3 K663Q (Homo sapiens, UniProt P36888, K663Q); test: DiscoverX KINOMEscan competition binding, FLT3 K663Q
T2 construct: purchased DiscoverX (KINOMEscan)
T2 sequence (P36888 27-993 K663Q): T1 sequence (P36888 27-993 D835Y) with K637Q, Y809D

[5] = starting conc. 100 nM, with (+)-BAY-1251152 starting conc. 1000 nM
[6] = starting conc. 100 nM, with Azacitidine (5-Azacytidine) starting conc. 20000 nM
[7] = starting conc. 100 nM, with Palbociclib starting conc. 10000 nM
[8] = starting conc. 100 nM, with Prednisolone starting conc. 10000 nM
[9] = starting conc. 100 nM, with TNO-155 starting conc. 10000 nM
[10] = starting conc. 100 nM, with Venetoclax (ABT-199) starting conc. 2000 nM
[11] = starting conc. 100 nM, with Venetoclax (ABT-199) starting conc. 20000 nM
[12] = starting conc. 20000 nM, with (+)-BAY-1251152 starting conc. 1000 nM
[13] = starting conc. 20000 nM, with Azacitidine (5-Azacytidine) starting conc. 20000 nM
[14] = starting conc. 20000 nM, with Palbociclib starting conc. 10000 nM
[15] = starting conc. 20000 nM, with Prednisolone starting conc. 10000 nM
[16] = starting conc. 20000 nM, with TNO-155 starting conc. 10000 nM
[17] = starting conc. 20000 nM, with Venetoclax (ABT-199) starting conc. 2000 nM
[18] = starting conc. 20000 nM, with Venetoclax (ABT-199) starting conc. 20000 nM

Question: Which “Excess HSA Score” value ([1]; THP1 cells, 10 × 10, combination with (+)-BAY-1251152) does the source give for `COc1cc2ncc(-c3ccnc(N[C@@H]4CCCNC4)n3)n2nc1C1CC1` [Compound 50, (R)-4-(6-cyclopropyl-7-methoxyimidazo[1,2-b]pyridazin-3-yl)-N-(piperidin-3-yl)pyrimidin-2-amine] here?
Answer: −396.5

Question: And the “Excess HSA Score” value ([1]; THP1 cells, 10 × 10, combination with AMG-232)?
Answer: 252

Question: And the “Excess HSA Score” value ([1]; THP1 cells, 10 × 10, combination with AZD-5363)?
Answer: −475

Question: What about the “Excess HSA Score” value ([1]; THP1 cells, 10 × 10, combination with Eprenetapopt/APR-246) of the same compound?
Answer: −218.2

Question: What about the “Excess HSA Score” value ([1]; THP1 cells, 10 × 10, combination with Ivosidenib) of the same compound?
Answer: −149.8

Question: What about the “Excess HSA Score” value ([1]; THP1 cells, 10 × 10, combination with Lenalidomide) of the same compound?
Answer: 333.7

Question: What about the “Excess HSA Score” value ([1]; THP1 cells, 10 × 10, combination with Palbociclib) of the same compound?
Answer: −273.2

Question: What about the “Excess HSA Score” value ([1]; THP1 cells, 10 × 10, combination with Prednisolone) of the same compound?
Answer: −429.3

Question: And the “Excess HSA Score” value ([1]; THP1 cells, 10 × 10, combination with SNDX-5613)?
Answer: −9.013

Question: And the “Excess HSA Score” value ([1]; THP1 cells, 10 × 10, combination with TNO-155)?
Answer: 306.2

Question: What about the “Excess HSA Score” value ([1]; THP1 cells, 10 × 10, combination with Trametinib) of the same compound?
Answer: −475.4

Question: What about the “Excess HSA Score” value ([1]; THP1 cells, 10 × 10, combination with Ulixertinib) of the same compound?
Answer: −358.5769

Question: And the “Excess HSA Score” value ([1]; THP1 cells, 10 × 10, combination with Venetoclax (ABT-199))?
Answer: −2869

Question: And the Comments ([1]; THP1 cells, combination with AMG-232)?
Answer: Antagonistic

Question: What about the Comments ([1]; THP1 cells, combination with Venetoclax (ABT-199)) of the same compound?
Answer: Synergistic

Question: And the Comments [1, 5]?
Answer: Synergistic at both

Question: What about the “Excess HSA Score” value [1, 5] of the same compound?
Answer: −408.4

Question: What about the Comments [1, 6] of the same compound?
Answer: Synergistic at both

Question: What about the “Excess HSA Score” value [1, 6] of the same compound?
Answer: −164.8

Question: And the Comments [1, 7]?
Answer: Antagonistic over

Question: What about the “Excess HSA Score” value [1, 7] of the same compound?
Answer: 19.42

Question: What about the Comments [1, 8] of the same compound?
Answer: Antagonistic at both

Question: And the “Excess HSA Score” value [1, 8]?
Answer: 76.0598

Question: And the “Excess HSA Score” value [1, 9]?
Answer: 0.06789

Question: What about the Comments [1, 10] of the same compound?
Answer: Synergistic; Optimal

Question: What about the “Excess HSA Score” value [1, 10] of the same compound?
Answer: −911.4

Question: What about the Comments [1, 11] of the same compound?
Answer: Synergistic; Optimal

Question: And the “Excess HSA Score” value [1, 11]?
Answer: −1400

Question: And the Comments [1, 12]?
Answer: Synergistic at both

Question: What about the “Excess HSA Score” value [1, 12] of the same compound?
Answer: −293.4

Question: What about the Comments [1, 13] of the same compound?
Answer: Synergistic at both

Question: What about the “Excess HSA Score” value [1, 13] of the same compound?
Answer: −347.5

Question: And the “Excess HSA Score” value [1, 14]?
Answer: −482.7

Question: What about the Comments [1, 15] of the same compound?
Answer: Antagonistic at both

Question: And the “Excess HSA Score” value [1, 15]?
Answer: 541.6925

Question: And the Comments [1, 16]?
Answer: Antagonistic

Question: And the “Excess HSA Score” value [1, 16]?
Answer: 230.5

Question: What about the Comments [1, 17] of the same compound?
Answer: Synergistic; Optimal

Question: And the “Excess HSA Score” value [1, 17]?
Answer: −27.96

Question: What about the Comments [1, 18] of the same compound?
Answer: Synergistic; Optimal

Question: And the “Excess HSA Score” value [1, 18]?
Answer: −1808

Question: What about the “Excess HSA Score” value ([2]; MOLM14(D835Y) cells, 10 × 10, combination with (+)-BAY-1251152) of the same compound?
Answer: −552.5

Question: And the “Excess HSA Score” value ([2]; MOLM14(D835Y) cells, 10 × 10, combination with AMG-232)?
Answer: −129.9

Question: And the “Excess HSA Score” value ([2]; MOLM14(D835Y) cells, 10 × 10, combination with AZD-5363)?
Answer: 12.5

Question: And the “Excess HSA Score” value ([2]; MOLM14(D835Y) cells, 10 × 10, combination with Eprenetapopt/APR-246)?
Answer: −99.03

Question: What about the “Excess HSA Score” value ([2]; MOLM14(D835Y) cells, 10 × 10, combination with Ivosidenib) of the same compound?
Answer: 219

Question: What about the “Excess HSA Score” value ([2]; MOLM14(D835Y) cells, 10 × 10, combination with Lenalidomide) of the same compound?
Answer: 555

Question: What about the “Excess HSA Score” value ([2]; MOLM14(D835Y) cells, 10 × 10, combination with Palbociclib) of the same compound?
Answer: −528.5

Question: What about the “Excess HSA Score” value ([2]; MOLM14(D835Y) cells, 10 × 10, combination with Prednisolone) of the same compound?
Answer: 196.6

Question: And the “Excess HSA Score” value ([2]; MOLM14(D835Y) cells, 10 × 10, combination with SNDX-5613)?
Answer: −229.3

Question: What about the “Excess HSA Score” value ([2]; MOLM14(D835Y) cells, 10 × 10, combination with TNO-155) of the same compound?
Answer: −1021

Question: What about the “Excess HSA Score” value ([2]; MOLM14(D835Y) cells, 10 × 10, combination with Trametinib) of the same compound?
Answer: −342.3

Question: What about the “Excess HSA Score” value ([2]; MOLM14(D835Y) cells, 10 × 10, combination with Ulixertinib) of the same compound?
Answer: 149.4

Question: What about the “Excess HSA Score” value ([2]; MOLM14(D835Y) cells, 10 × 10, combination with Venetoclax (ABT-199)) of the same compound?
Answer: −1391

Question: What about the Comments ([2]; MOLM14(D835Y) cells, combination with AZD-5363) of the same compound?
Answer: Antagonistic

Question: And the Comments ([2]; MOLM14(D835Y) cells, combination with Venetoclax (ABT-199))?
Answer: Synergistic

Question: And the Comments [2, 5]?
Answer: Synergistic

Question: What about the “Excess HSA Score” value [2, 5] of the same compound?
Answer: −317.9

Question: What about the “Excess HSA Score” value [2, 6] of the same compound?
Answer: −579.8

Question: And the “Excess HSA Score” value [2, 7]?
Answer: −1019

Question: And the “Excess HSA Score” value [2, 8]?
Answer: 9.258

Question: And the Comments [2, 9]?
Answer: Synergistic

Question: What about the “Excess HSA Score” value [2, 9] of the same compound?
Answer: −1043.6684

Question: And the Comments [2, 10]?
Answer: Synergistic;

Question: And the “Excess HSA Score” value [2, 10]?
Answer: −1372

Question: What about the Comments [2, 11] of the same compound?
Answer: Synergistic;

Question: And the “Excess HSA Score” value [2, 11]?
Answer: −83.83

Question: And the Comments [2, 12]?
Answer: Antagonistic

Question: What about the “Excess HSA Score” value [2, 12] of the same compound?
Answer: 67.99

Question: What about the “Excess HSA Score” value [2, 13] of the same compound?
Answer: −56.9

Question: And the “Excess HSA Score” value [2, 14]?
Answer: −31.37

Question: And the “Excess HSA Score” value [2, 15]?
Answer: 121.2

Question: What about the Comments [2, 16] of the same compound?
Answer: Additive

Question: What about the “Excess HSA Score” value [2, 16] of the same compound?
Answer: −2.487

Question: What about the Comments [2, 17] of the same compound?
Answer: Synergistic;

Question: And the “Excess HSA Score” value [2, 17]?
Answer: −1026

Question: What about the Comments [2, 18] of the same compound?
Answer: Synergistic;

Question: And the “Excess HSA Score” value [2, 18]?
Answer: −74.01

Question: What does the source list for `COc1cc2ncc(-c3cncc(N[C@H]4CNC[C@@H]4F)n3)n2nc1C1CC1` [Compound 22, 6-(6-cyclopropyl-7-methoxyimidazo[1,2-b]pyridazin-3-yl)-N-((3S,4S)-4-fluoropyrrolidin-3-yl)pyrazin-2-amine]?
Answer: Kd [3]: 0.6 nM; Kd [4]: 18 nM

Question: For `COc1cc2ncc(-c3ccnc(N[C@H]4CNC[C@@H]4F)n3)n2nc1C1CC1` [Compound 49, 4-(6-cyclopropyl-7-methoxyimidazo[1,2-b]pyridazin-3-yl)-N-((3S,4S)-4-fluoropyrrolidin-3-yl)pyrimidin-2-amine], which Kd [3] is on record?
Answer: 0.41 nM

Question: And the Kd [4]?
Answer: 2.2 nM

Question: For `COc1cc2ncc(-c3ccnc(N[C@H]4CNCC[C@@H]4F)n3)n2nc1C1CC1` [Compound 51, 4-(6-cyclopropyl-7-methoxyimidazo[1,2-b]pyridazin-3-yl)-N-((3S,4S)-4-fluoropiperidin-3-yl)pyrimidin-2-amine], which Kd [3] is on record?
Answer: 0.35 nM

Question: And the Kd [4]?
Answer: 0.82 nM

— US20250154144A1 (CHILDREN'S HOSPITAL MEDICAL CENTER, priority 2021, published 2025)
